Patent US20140228381A1, “METHODS OF CONTROLLING INSECTS OF THE FAMILY CURCOLIONIDAE” (SYNGENTA PARTICIPATIONS AG, priority 2011, published 2014)

Assays:
Assay type in all cases: in vivo
Heliothis virescens = test: BP80 Heliothis virescens ovo-larvicide, feeding/contact activity, curative; details: eggs on artificial diet, 5 days incubation
Procedure: (§1) BP80s (break points for 80% mortality) were obtained for Pyrifluquinazon and Flonicamid against the following pests: Heliothis virescens, Plutella xylostella, Tetranychus urticae and Cydia pomonella. The specific method used for each pest is outlined below. Heliothis virescens (Tobacco Budworm): ovo-larvicide, feeding/contact activity, curative Eggs (0-24 h old) are placed in a 24-well microtiter plate on artificial diet and treated with test solutions by pipetting. After an incubation period of 5 days, samples are checked for egg mortality and larval mortality. Selectable application rates: 500-0.05 ppm Plutella xylostella (Diamondback Moth): larvicide, feeding/residual contact activity, preventative 24-well microtiter plates with artificial diet are treated with test solutions by pipetting. After drying, the plates are infested with L2 larvae (10-15 per well). After an incubation period of 5 days, samples are checked for larval mortality. Selectable application rates: 500-0.05 ppm Tetranychus urticae (Two-Spotted Spider Mite): Mixed Population feeding/contact activity, preventative Bean leaf discs on agar in 24-well microtiter plates are sprayed with test solutions. After drying, the leaf discs are infested with mite populations of mixed ages. 8 days later, discs are checked for egg mortality, larval mortality, and adult mortality. […]

Plutella xylostella = test: BP80 Plutella xylostella larvicide, feeding/residual contact activity, preventative; details: L2 larvae on artificial diet, 5 days incubation
Procedure: as §1

Tetranychus urticae = test: BP80 Tetranychus urticae mixed population, feeding/contact activity, preventative; details: bean leaf discs, mixed ages, 8 days
Procedure: as §1

Cydia pomonella = test: BP80 Cydia pomonella larvicide, contact/feeding activity, preventative; details: L1 larvae on diet cubes, 14 days after infestation
Procedure: as §1

Anthonomus grandis [1] = test: B.2 field trial, insecticidal activity against Anthonomus grandis in cotton; details: 75 g ai/ha, 50% WG
Procedure: Trials were carried out in a randomized complete block design, each comprising of 4 replicates, plot size of 30 m^2. Application was carried out with a pressurized knap sack sprayer. 200 liters of spray volume was applied per ha. 4 applications were carried out in 5 days interval. Flonicamid was applied as a 50% WG Efficacy was evaluated 2 days after 2nd application and 4 days after 4th application. 50 squares were counted per plot and the % reduction of damaged squares in comparison to untreated control was calculated after the ABBOTT formula.

Anthonomus grandis [2] = test: B.3 field trial, insecticidal activity against Anthonomus grandis in cotton; details: 75 g ai/ha, 50% WG
Procedure: (§2) Trials were carried out in a randomized complete block design, each comprising of 4 replicates and a plot size of 30 m^2. Application was carried out with a pressurized knap sack sprayer. 200 liters of spray volume was applied per ha. 3 applications were carried out in 5 days interval, the first application at BBCH 51. Flonicamid was applied as a 50% WG. Efficacy was evaluated 2 days after 2nd and 5 days after 3rd application. 50 squares were counted per plot and the percentage reduction of damaged squares in comparison to untreated control was calculated after the ABBOTT formula.

Anthonomus grandis [3] = test: B.4 field trial, insecticidal activity against Anthonomus grandis in cotton
Procedure: as §2, with “4 replicates,” for “4 replicates and a”, “ha. 4” for “ha. 3”, “50% WG, and Pyrifluquinaon as a 10% WP.” for “50% WG.”, “after 4th” for “after 2nd”, “and 7” for “and 5”, “after 4th” for “after 3rd”

Anthonomus adults = test: B.5 immobility effect, contact spray on Anthonomus adults; details: 300 ppm contact spray; for no of insects at infestation site (A) / no of insects capable of leaving the infestation site (B) + (C) / no of insects in test arena, not on diet (C) / no of insects on diet (B): 50 beetles
Procedure: In this test 50 freshly hatched beetles were treated with FLON (IF 050 formulation) and PYQU (VVG 50 formulation). Using a turntable spray, 300 ppm of a 200 g ai/ha formulation were sprayed directly on the beetles. The control beetles (“check”) were sprayed with water. The petri dish was then placed in the test arena next to which was placed a diet situated 23 cm above ground. After a certain time periods shown below in the table, the number of beetles on different sites was counted: […]

SMILES: N#CCNC(=O)c1cnccc1C(F)(F)F [Flonicamid, N-(cyanomethyl)-4-(trifluoromethyl)-3-pyridinecarboxamide]
- BP80 (break point for 80% mortality) (Heliothis virescens): >200 ppm
- BP80 (break point for 80% mortality) (Plutella xylostella): >200 ppm
- BP80 (break point for 80% mortality) (Tetranychus urticae): >200 ppm
- BP80 (break point for 80% mortality) (Cydia pomonella): >50 ppm
- % reduction of damaged squares (Anthonomus grandis [1]; 2 days after 2nd application): 50%
- % reduction of damaged squares (Anthonomus grandis [1]; 4 days after 4th application): 57%
- % reduction of damaged squares (Anthonomus grandis [2]; 2 days after 2nd application): 67%
- % reduction of damaged squares (Anthonomus grandis [2]; 5 days after 3rd application): 52%
- % reduction of damaged squares (Anthonomus grandis [3]; 75 g ai/ha, 2 days after 4th application): 65%
- % reduction of damaged squares (Anthonomus grandis [3]; 75 g ai/ha, 7 days after 4th application): 50%
- % reduction of damaged squares (Anthonomus grandis [3]; 150 g ai/ha, 2 days after 4th application): 81%
- % reduction of damaged squares (Anthonomus grandis [3]; 150 g ai/ha, 7 days after 4th application): 52%
- immobility effect disappeared with time (rank order) (Anthonomus adults): PYQU>FLON
- no of insects at infestation site (A) (Anthonomus adults; 3 hours): 37
- no of insects capable of leaving the infestation site (B) + (C) (Anthonomus adults; 3 hours): 13
- no of insects in test arena, not on diet (C) (Anthonomus adults; 3 hours): 11
- no of insects on diet (B) (Anthonomus adults; 3 hours): 2
- no of insects at infestation site (A) (Anthonomus adults; 6 hours): 44
- no of insects capable of leaving the infestation site (B) + (C) (Anthonomus adults; 6 hours): 6
- no of insects in test arena, not on diet (C) (Anthonomus adults; 6 hours): 3
- no of insects on diet (B) (Anthonomus adults; 6 hours): 3
- no of insects at infestation site (A) (Anthonomus adults; 24 hours): 37
- no of insects capable of leaving the infestation site (B) + (C) (Anthonomus adults; 24 hours): 13
- no of insects in test arena, not on diet (C) (Anthonomus adults; 24 hours): 6
- no of insects on diet (B) (Anthonomus adults; 24 hours): 7
- no of insects at infestation site (A) (Anthonomus adults; 32 hours): 21
- no of insects capable of leaving the infestation site (B) + (C) (Anthonomus adults; 32 hours): 29
- no of insects in test arena, not on diet (C) (Anthonomus adults; 32 hours): 3
- no of insects on diet (B) (Anthonomus adults; 32 hours): 26
- no of insects at infestation site (A) (Anthonomus adults; 48 hours): 14
- no of insects capable of leaving the infestation site (B) + (C) (Anthonomus adults; 48 hours): 36
- no of insects in test arena, not on diet (C) (Anthonomus adults; 48 hours): 6
- no of insects on diet (B) (Anthonomus adults; 48 hours): 30
- no of insects at infestation site (A) (Anthonomus adults; 52 hours): 10
- no of insects capable of leaving the infestation site (B) + (C) (Anthonomus adults; 52 hours): 40
- no of insects in test arena, not on diet (C) (Anthonomus adults; 52 hours): 3
- no of insects on diet (B) (Anthonomus adults; 52 hours): 37
- no of insects at infestation site (A) (Anthonomus adults; 72 hours): 9
- no of insects capable of leaving the infestation site (B) + (C) (Anthonomus adults; 72 hours): 41
- no of insects in test arena, not on diet (C) (Anthonomus adults; 72 hours): 7
- no of insects on diet (B) (Anthonomus adults; 72 hours): 34
- no of insects at infestation site (A) (Anthonomus adults; 78 hours): 5
- no of insects capable of leaving the infestation site (B) + (C) (Anthonomus adults; 78 hours): 45
- no of insects in test arena, not on diet (C) (Anthonomus adults; 78 hours): 6
- no of insects on diet (B) (Anthonomus adults; 78 hours): 39
- no of insects at infestation site (A) (Anthonomus adults; 144 hours): 15
- no of insects capable of leaving the infestation site (B) + (C) (Anthonomus adults; 144 hours): 35
- no of insects in test arena, not on diet (C) (Anthonomus adults; 144 hours): 3
- no of insects on diet (B) (Anthonomus adults; 144 hours): 32
- no of insects at infestation site (A) (Anthonomus adults; 150 hours): 5
- no of insects capable of leaving the infestation site (B) + (C) (Anthonomus adults; 150 hours): 45
- no of insects in test arena, not on diet (C) (Anthonomus adults; 150 hours): 1
- no of insects on diet (B) (Anthonomus adults; 150 hours): 44

SMILES: CC(=O)N1C(=O)N(NCc2cccnc2)Cc2cc(C(F)(C(F)(F)F)C(F)(F)F)ccc21 [Pyrifluquinazon, 1-acetyl-3,4-dihydro-3-[(3-pyridinylmethyl)amino]-6-[1,2,2,2-tetrafluoro-1-(trifluoromethyl)ethyl]-2(1H)-quinazolinone]
- BP80 (break point for 80% mortality) (Heliothis virescens): >200 ppm
- BP80 (break point for 80% mortality) (Plutella xylostella): >200 ppm
- BP80 (break point for 80% mortality) (Tetranychus urticae): >200 ppm
- % reduction of damaged squares (Anthonomus grandis [3]; 100 g ai/ha, 2 days after 4th application): 77%
- % reduction of damaged squares (Anthonomus grandis [3]; 100 g ai/ha, 7 days after 4th application): 37%
- % reduction of damaged squares (Anthonomus grandis [3]; 200 g ai/ha, 2 days after 4th application): 85%
- % reduction of damaged squares (Anthonomus grandis [3]; 200 g ai/ha, 7 days after 4th application): 48%
- immobility effect disappeared with time (rank order) (Anthonomus adults): PYQU>FLON
- no of insects at infestation site (A) (Anthonomus adults; 3 hours): 45
- no of insects capable of leaving the infestation site (B) + (C) (Anthonomus adults; 3 hours): 5
- no of insects in test arena, not on diet (C) (Anthonomus adults; 3 hours): 1
- no of insects on diet (B) (Anthonomus adults; 3 hours): 4
- no of insects at infestation site (A) (Anthonomus adults; 6 hours): 45
- no of insects capable of leaving the infestation site (B) + (C) (Anthonomus adults; 6 hours): 5
- no of insects in test arena, not on diet (C) (Anthonomus adults; 6 hours): 2
- no of insects on diet (B) (Anthonomus adults; 6 hours): 3
- no of insects at infestation site (A) (Anthonomus adults; 24 hours): 39
- no of insects capable of leaving the infestation site (B) + (C) (Anthonomus adults; 24 hours): 11
- no of insects in test arena, not on diet (C) (Anthonomus adults; 24 hours): 3
- no of insects on diet (B) (Anthonomus adults; 24 hours): 8
- no of insects at infestation site (A) (Anthonomus adults; 32 hours): 27
- no of insects capable of leaving the infestation site (B) + (C) (Anthonomus adults; 32 hours): 23
- no of insects in test arena, not on diet (C) (Anthonomus adults; 32 hours): 4
- no of insects on diet (B) (Anthonomus adults; 32 hours): 19
- no of insects at infestation site (A) (Anthonomus adults; 48 hours): 28
- no of insects capable of leaving the infestation site (B) + (C) (Anthonomus adults; 48 hours): 22
- no of insects in test arena, not on diet (C) (Anthonomus adults; 48 hours): 4
- no of insects on diet (B) (Anthonomus adults; 48 hours): 18
- no of insects at infestation site (A) (Anthonomus adults; 52 hours): 30
- no of insects capable of leaving the infestation site (B) + (C) (Anthonomus adults; 52 hours): 20
- no of insects in test arena, not on diet (C) (Anthonomus adults; 52 hours): 6
- no of insects on diet (B) (Anthonomus adults; 52 hours): 14
- no of insects at infestation site (A) (Anthonomus adults; 72 hours): 30
- no of insects capable of leaving the infestation site (B) + (C) (Anthonomus adults; 72 hours): 20
- no of insects in test arena, not on diet (C) (Anthonomus adults; 72 hours): 6
- no of insects on diet (B) (Anthonomus adults; 72 hours): 14
- no of insects at infestation site (A) (Anthonomus adults; 78 hours): 24
- no of insects capable of leaving the infestation site (B) + (C) (Anthonomus adults; 78 hours): 26
- no of insects in test arena, not on diet (C) (Anthonomus adults; 78 hours): 4
- no of insects on diet (B) (Anthonomus adults; 78 hours): 22
- no of insects at infestation site (A) (Anthonomus adults; 144 hours): 15
- no of insects capable of leaving the infestation site (B) + (C) (Anthonomus adults; 144 hours): 35
- no of insects in test arena, not on diet (C) (Anthonomus adults; 144 hours): 4
- no of insects on diet (B) (Anthonomus adults; 144 hours): 31
- no of insects at infestation site (A) (Anthonomus adults; 150 hours): 15
- no of insects capable of leaving the infestation site (B) + (C) (Anthonomus adults; 150 hours): 35
- no of insects in test arena, not on diet (C) (Anthonomus adults; 150 hours): 2
- no of insects on diet (B) (Anthonomus adults; 150 hours): 33
